# Source: US20250163104A1, “MACROCYCLIC IMMUNOMODULATORS” (priority 2021, published 2025)
# Where a SMILES comes first, the peptide text is derived from it. Bridges are numbered along the chain shown (N, C = ends). [ ]: non-standard residue; d: D form. The star is where a group is joined. Bip = N[C@@H](Cc1ccc(-c2ccccc2)cc1)C(=O)O; Phe(3-Me) = Cc1cccc(C[C@H](N)C(=O)O)c1; Cha = N[C@@H](CC1CCCCC1)C(=O)O; Cit = NC(=O)NCCC[C@H](N)C(=O)O; Carboxymethyl = O=C(O)C*; Nle = CCCC[C@H](N)C(=O)O; Orn = NCCC[C@H](N)C(=O)O; Dab = NCC[C@H](N)C(=O)O; Dap = NC[C@H](N)C(=O)O
# Biological target: T1, human PD-1 / PD-L1-Ig binding on Jurkat cell line over-expressing human PD-1 (Jurkat-PD-1) (Homo sapiens, UniProt Q15116)
# T1 construct: expressed in transfected cells; host or cells: Jurkat
# T1 sequence (Q15116 25-288): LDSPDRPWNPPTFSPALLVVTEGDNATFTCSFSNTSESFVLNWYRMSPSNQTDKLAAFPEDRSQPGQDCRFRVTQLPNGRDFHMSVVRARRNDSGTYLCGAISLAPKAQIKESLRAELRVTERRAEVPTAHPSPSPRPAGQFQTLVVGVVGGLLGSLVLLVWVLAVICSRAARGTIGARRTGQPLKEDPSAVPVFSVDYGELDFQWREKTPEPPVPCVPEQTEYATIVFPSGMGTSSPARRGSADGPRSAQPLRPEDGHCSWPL
# Experiment: Jurkat-PD-1 Cell Binding High-Content Screening Assay (CBA)
# Type: cell-based
# Details: Jurkat-PD-1 cells, PE-labeled PD-L1-Ig 20 nM final; read-out: Jurkat HPD1_PDL1 IC50
# Outline: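 Binding of fluorescent PD-L1-Ig (phycoerythrin linked via the Ig tag, 20 nM final) to PD-1-overexpressing Jurkat cells was imaged after a 2 h, 37° C compound pretreatment and 1 hour ligand incubation.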
row,IC50 [nM],SMILES
1,26.5,CC(C)C[C@@H]1NC(=O)[C@H](Cc2c[nH]c3ccccc23)NC(=O)[C@H](CC(=O)O)NC(=O)[C@H](Cc2ccc(OCC(=O)O)cc2)NC(=O)[C@H](CN)NC(=O)CSC[C@@H](C(=O)N[C@@H](C)C(N)=O)NC(=O)[C@H]([C@@H](C)O)NC(=O)[C@H](C(C)C)NC(=O)[C@H](CC(C)C)NC(=O)[C@H](CCN)NC(=O)[C@@H](CC(C)C)NC(=O)[C@H](CCCN)NC(=O)[C@H](CCCNC(N)=O)NC(=O)[C@H](Cc2ccc(-c3ccccc3)cc2)NC1=O [Compound 1304] ({CH2CO}-[Dap]Y(Carboxymethyl)DWL[Bip][Cit][Orn][dL][Dab]LVTCA-NH2; thioether N-14)
2,11.7,Cc1cccc(C[C@@H]2NC(=O)[C@H](CC(=O)O)NC(=O)[C@H](Cc3ccc(O)cc3)NC(=O)[C@H](CC(N)=O)NC(=O)CSC[C@@H](C(=O)N[C@@H](C)C(N)=O)NC(=O)[C@H]([C@@H](C)O)NC(=O)[C@H](C(C)C)NC(=O)[C@H](CC(C)C)NC(=O)[C@H](CCN)NC(=O)[C@@H](CC(C)C)NC(=O)[C@H](CCCN)NC(=O)[C@H](CCCNC(N)=O)NC(=O)[C@H](Cc3ccc(-c4ccccc4)cc3)NC(=O)[C@H](CC(C)C)NC2=O)c1 [Compound 1305] ({CH2CO}-NYD[Phe(3-Me)]L[Bip][Cit][Orn][dL][Dab]LVTCA-NH2; thioether N-14)
3,14.6,Cc1cccc(C[C@@H]2NC(=O)[C@H](CC(=O)O)NC(=O)[C@H](Cc3ccc(O)cc3)NC(=O)[C@H](CC(N)=O)NC(=O)CSC[C@@H](C(=O)N[C@@H](C)C(N)=O)NC(=O)[C@H]([C@@H](C)O)NC(=O)[C@H](C(C)C)NC(=O)[C@H](CC3CCCCC3)NC(=O)[C@H](CCN)NC(=O)[C@@H](CC(C)C)NC(=O)[C@H](CCCN)NC(=O)[C@H](CCCNC(N)=O)NC(=O)[C@H](Cc3ccc(-c4ccccc4)cc3)NC(=O)[C@H](CC(C)C)NC2=O)c1 [Compound 1306] ({CH2CO}-NYD[Phe(3-Me)]L[Bip][Cit][Orn][dL][Dab][Cha]VTCA-NH2; thioether N-14)
4,37.4,CCCC[C@@H]1NC(=O)[C@H](CCN)NC(=O)[C@@H](CC(C)C)NC(=O)[C@H](CCCN)NC(=O)[C@H](CCCNC(N)=O)NC(=O)[C@H](Cc2ccc(-c3ccccc3)cc2)NC(=O)[C@H](CC(C)C)NC(=O)[C@H](Cc2cccc(C)c2)NC(=O)[C@H](CC(=O)O)NC(=O)[C@H](Cc2ccc(O)cc2)NC(=O)[C@H](CC(N)=O)NC(=O)CSC[C@@H](C(=O)N[C@@H](C)C(N)=O)NC(=O)[C@H]([C@@H](C)O)NC(=O)[C@H](C(C)C)NC1=O [Compound 1307] ({CH2CO}-NYD[Phe(3-Me)]L[Bip][Cit][Orn][dL][Dab][Nle]VTCA-NH2; thioether N-14)
5,12.6,CC(C)C[C@H]1NC(=O)[C@H](CCCN)NC(=O)[C@H](CCCNC(N)=O)NC(=O)[C@H](Cc2ccc(-c3ccccc3)cc2)NC(=O)[C@H](C(C)C)NC(=O)[C@H](Cc2c[nH]c3ccccc23)NC(=O)[C@H](CC(=O)O)NC(=O)[C@H](Cc2ccc(OCC(=O)O)cc2)NC(=O)[C@H](CN)NC(=O)CSC[C@@H](C(=O)N[C@@H](C)C(N)=O)NC(=O)[C@H]([C@@H](C)O)NC(=O)[C@H](C(C)C)NC(=O)[C@H](CC2CCCCC2)NC(=O)[C@H](CCN)NC1=O [Compound 1308] ({CH2CO}-[Dap]Y(Carboxymethyl)DWV[Bip][Cit][Orn][dL][Dab][Cha]VTCA-NH2; thioether N-14)
6,48.4,Cc1cccc(C[C@@H]2NC(=O)[C@H](CC(=O)O)NC(=O)[C@H](Cc3ccc(OCC(=O)O)cc3)NC(=O)[C@H](CN)NC(=O)CSC[C@@H](C(=O)N[C@@H](C)C(N)=O)NC(=O)[C@H]([C@@H](C)O)NC(=O)[C@H](C(C)C)NC(=O)[C@H](CC3CCCCC3)NC(=O)[C@H](CCN)NC(=O)[C@@H](CC(C)C)NC(=O)[C@H](CCCN)NC(=O)[C@H](CCN)NC(=O)[C@H](Cc3ccc(-c4ccccc4)cc3)NC(=O)[C@H](C(C)C)NC2=O)c1 [Compound 1309] ({CH2CO}-[Dap]Y(Carboxymethyl)D[Phe(3-Me)]V[Bip][Dab][Orn][dL][Dab][Cha]VTCA-NH2; thioether N-14)
7,12,Cc1cccc(C[C@@H]2NC(=O)[C@H](CC(=O)O)NC(=O)[C@H](Cc3ccc(OCC(=O)O)cc3)NC(=O)[C@H](CN)NC(=O)CSC[C@@H](C(=O)N[C@@H](C)C(N)=O)NC(=O)[C@H]([C@@H](C)O)NC(=O)[C@H](C(C)C)NC(=O)[C@H](CC3CCCCC3)NC(=O)[C@H](CCN)NC(=O)[C@@H](CC(C)C)NC(=O)[C@H](CCCN)NC(=O)[C@H](CN)NC(=O)[C@H](Cc3ccc(-c4ccccc4)cc3)NC(=O)[C@H](C(C)C)NC2=O)c1 [Compound 1310] ({CH2CO}-[Dap]Y(Carboxymethyl)D[Phe(3-Me)]V[Bip][Dap][Orn][dL][Dab][Cha]VTCA-NH2; thioether N-14)
8,16,Cc1cccc(C[C@@H]2NC(=O)[C@H](CC(=O)O)NC(=O)[C@H](Cc3ccc(OCC(=O)O)cc3)NC(=O)[C@H](CN)NC(=O)CSC[C@@H](C(=O)N[C@@H](C)C(N)=O)NC(=O)[C@H]([C@@H](C)O)NC(=O)[C@H](C(C)C)NC(=O)[C@H](CC3CCCCC3)NC(=O)[C@H](CCN)NC(=O)[C@@H](CC(C)C)NC(=O)[C@H](CCCN)NC(=O)[C@H](CCCN)NC(=O)[C@H](Cc3ccc(-c4ccccc4)cc3)NC(=O)[C@H](C(C)C)NC2=O)c1 [Compound 1311] ({CH2CO}-[Dap]Y(Carboxymethyl)D[Phe(3-Me)]V[Bip][Orn][Orn][dL][Dab][Cha]VTCA-NH2; thioether N-14)
9,4,CC(C)C[C@H]1NC(=O)[C@H](CCCN)NC(=O)[C@H](C(C)C)NC(=O)[C@H](Cc2ccc(-c3ccccc3)cc2)NC(=O)[C@H](C(C)C)NC(=O)[C@H](Cc2c[nH]c3ccccc23)NC(=O)[C@H](CC(=O)O)NC(=O)[C@H](Cc2ccc(OCC(=O)O)cc2)NC(=O)[C@H](CN)NC(=O)CSC[C@@H](C(=O)N[C@@H](C)C(N)=O)NC(=O)[C@H]([C@@H](C)O)NC(=O)[C@H](C(C)C)NC(=O)[C@H](CC2CCCCC2)NC(=O)[C@H](CCN)NC1=O [Compound 1312] ({CH2CO}-[Dap]Y(Carboxymethyl)DWV[Bip]V[Orn][dL][Dab][Cha]VTCA-NH2; thioether N-14)
10,15.7,CC(C)C[C@@H]1NC(=O)[C@H](Cc2c[nH]c3ccccc23)NC(=O)[C@H](CC(=O)O)NC(=O)[C@H](Cc2ccc(OCC(=O)O)cc2)NC(=O)[C@H](CN)NC(=O)CSC[C@@H](C(=O)N[C@@H](C)C(N)=O)NC(=O)[C@H]([C@@H](C)O)NC(=O)[C@H](C(C)C)NC(=O)[C@H](CC(C)C)NC(=O)[C@H](CCN)NC(=O)[C@@H](CC(C)C)NC(=O)[C@H](CCCN)NC(=O)[C@H](C(C)C)NC(=O)[C@H](Cc2ccc(-c3ccccc3)cc2)NC1=O [Compound 1313] ({CH2CO}-[Dap]Y(Carboxymethyl)DWL[Bip]V[Orn][dL][Dab]LVTCA-NH2; thioether N-14)
11,9,CC[C@H](C)[C@@H]1NC(=O)[C@H](CC2CCCCC2)NC(=O)[C@H](CCN)NC(=O)[C@@H](CC(C)C)NC(=O)[C@H](CCCN)NC(=O)[C@H](CCCNC(N)=O)NC(=O)[C@H](Cc2ccc(-c3ccccc3)cc2)NC(=O)[C@H](C(C)C)NC(=O)[C@H](Cc2c[nH]c3ccccc23)NC(=O)[C@H](CC(=O)O)NC(=O)[C@H](Cc2ccc(OCC(=O)O)cc2)NC(=O)[C@H](CN)NC(=O)CSC[C@@H](C(=O)N[C@@H](C)C(N)=O)NC(=O)[C@H]([C@@H](C)O)NC1=O [Compound 1314] ({CH2CO}-[Dap]Y(Carboxymethyl)DWV[Bip][Cit][Orn][dL][Dab][Cha]ITCA-NH2; thioether N-14)
12,18.6,CC(C)C[C@H]1NC(=O)[C@H](CCCN)NC(=O)[C@H](CCCNC(N)=O)NC(=O)[C@H](Cc2ccc(-c3ccccc3)cc2)NC(=O)[C@H]([C@@H](C)O)NC(=O)[C@H](Cc2c[nH]c3ccccc23)NC(=O)[C@H](CC(=O)O)NC(=O)[C@H](Cc2ccc(OCC(=O)O)cc2)NC(=O)[C@H](CN)NC(=O)CSC[C@@H](C(=O)N[C@@H](C)C(N)=O)NC(=O)[C@H]([C@@H](C)O)NC(=O)[C@H](C(C)C)NC(=O)[C@H](CC2CCCCC2)NC(=O)[C@H](CCN)NC1=O [Compound 1315] ({CH2CO}-[Dap]Y(Carboxymethyl)DWT[Bip][Cit][Orn][dL][Dab][Cha]VTCA-NH2; thioether N-14)
13,9.1,CC[C@H](C)[C@@H]1NC(=O)[C@H](Cc2c[nH]c3ccccc23)NC(=O)[C@H](CC(=O)O)NC(=O)[C@H](Cc2ccc(OCC(=O)O)cc2)NC(=O)[C@H](CN)NC(=O)CSC[C@@H](C(=O)N[C@@H](C)C(N)=O)NC(=O)[C@H]([C@@H](C)O)NC(=O)[C@H](C(C)C)NC(=O)[C@H](CC2CCCCC2)NC(=O)[C@H](CCN)NC(=O)[C@@H](CC(C)C)NC(=O)[C@H](CCCN)NC(=O)[C@H](CCCNC(N)=O)NC(=O)[C@H](Cc2ccc(-c3ccccc3)cc2)NC1=O [Compound 1316] ({CH2CO}-[Dap]Y(Carboxymethyl)DWI[Bip][Cit][Orn][dL][Dab][Cha]VTCA-NH2; thioether N-14)
14,912,CC[C@H](C)[C@@H]1NC(=O)[C@H](CCN)NC(=O)[C@@H](CC(C)C)NC(=O)[C@H](CCCN)NC(=O)[C@H](CCCNC(N)=O)NC(=O)[C@H](Cc2ccc(-c3ccccc3)cc2)NC(=O)[C@H](C(C)C)NC(=O)[C@H](Cc2c[nH]c3ccccc23)NC(=O)[C@H](CC(=O)O)NC(=O)[C@H](Cc2ccc(OCC(=O)O)cc2)NC(=O)[C@H](CN)NC(=O)CSC[C@@H](C(=O)N[C@@H](C)C(N)=O)NC(=O)[C@H]([C@@H](C)O)NC(=O)[C@H](C(C)C)NC1=O [Compound 1317] ({CH2CO}-[Dap]Y(Carboxymethyl)DWV[Bip][Cit][Orn][dL][Dab]IVTCA-NH2; thioether N-14)
15,10.6,CC(C)C[C@H]1NC(=O)[C@H](CCCN)NC(=O)[C@H](CCCNC(N)=O)NC(=O)[C@H](Cc2ccc(-c3ccccc3)cc2)NC(=O)[C@H](C(C)C)NC(=O)[C@H](Cc2c[nH]c3ccccc23)NC(=O)[C@H](CC(=O)O)NC(=O)[C@H](Cc2ccc(OCC(=O)O)cc2)NC(=O)[C@H](CN)NC(=O)CSC[C@@H](C(=O)N[C@@H](C)C(N)=O)NC(=O)[C@H]([C@@H](C)O)NC(=O)[C@H]([C@@H](C)O)NC(=O)[C@H](CC2CCCCC2)NC(=O)[C@H](CCN)NC1=O [Compound 1318] ({CH2CO}-[Dap]Y(Carboxymethyl)DWV[Bip][Cit][Orn][dL][Dab][Cha]TTCA-NH2; thioether N-14)
